Source: ChEMBL document CHEMBL1201862, “PubChem BioAssay data set” (2004)
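Values below derive from 48-hour exposures of cells grown in 96-well plates, with endpoints linearly interpolated between the two concentrations bracketing the appropriate inhibition level. GI50 is the concentration that inhibits growth by half.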 Active and inactive are the calls of the source. No stated cut-off is given here; in the data, active = GI50 up to about 1.1 µM and inactive = higher.

Assays:
Assay in all cases: growth of human tumour cells (NCI), 48 h
A549 = test system: A549
DU-145 = test system: DU-145
EKVX = test system: EKVX
HCT-15 = test system: HCT-15
M14 = test system: M14
NCI-H226 = test system: NCI-H226
NCI-H23 = test system: NCI-H23
NCI/ADR-RES = test system: NCI/ADR-RES
OVCAR-3 = test system: OVCAR-3
OVCAR-5 = test system: OVCAR-5
SF-539 = test system: SF-539
SNB-19 = test system: SNB-19
SW-620 = test system: SW-620
TK-10 = test system: TK-10
U-251 = test system: U-251
UACC-257 = test system: UACC-257
UO-31 = test system: UO-31
SF-268 = test system: SF-268
A498 = test system: A498
Malme-3M = test system: Malme-3M

SMILES | GI50 (A549) | GI50 (DU-145) | GI50 (EKVX) | GI50 (HCT-15) [µM] | GI50 (M14) | GI50 (NCI-H226) | GI50 (NCI-H23) | GI50 (NCI/ADR-RES) | GI50 (OVCAR-3) | GI50 (OVCAR-5) | GI50 (SF-539) | GI50 (SNB-19) | GI50 (SW-620) | GI50 (TK-10) | GI50 (U-251) | GI50 (UACC-257) | GI50 (UO-31) | GI50 (SF-268) | GI50 (A498) | GI50 (Malme-3M)
O=C1Nc2ccccc2C(=O)/C1=C/NC(=S)NCCc1ccccc1 | > 100 µM (inactive) | > 100 µM (inactive) | > 100 µM (inactive) | > 100 | > 100 µM (inactive) | > 100 µM (inactive) | > 100 µM (inactive) | > 100 µM (inactive) | > 100 µM (inactive) | > 100 µM (inactive) | > 100 µM (inactive) | > 100 µM (inactive) | > 100 µM (inactive) | 22.1 µM (inactive) | > 100 µM (inactive) | > 100 µM (inactive) | > 100 µM (inactive) |  |  | 
COc1cccc(-c2nc(-c3cnccn3)n(Cc3ccccc3)n2)c1 | > 100 µM (inactive) | > 100 µM (inactive) | > 100 µM (inactive) | > 100 | > 100 µM (inactive) |  | > 100 µM (inactive) |  | > 100 µM (inactive) | > 100 µM (inactive) | 85.1 µM (inactive) | 90.4 µM (inactive) | > 100 µM (inactive) | > 100 µM (inactive) | > 100 µM (inactive) | > 100 µM (inactive) | 73.5 µM (inactive) | > 100 µM (inactive) |  | 
O=C1Cc2c([nH]c3cc(Br)ccc23)-c2ccccc2N1 | 15.8 µM (inactive) | 21.4 µM (inactive) |  | 4.21 | 18.5 µM (inactive) | 6.98 µM (inactive) | 11.6 µM (inactive) |  | 19.6 µM (inactive) | 9.51 µM (inactive) | 16.2 µM (inactive) | 21.9 µM (inactive) | 6.81 µM (inactive) | 29.3 µM (inactive) | 14.4 µM (inactive) |  | 17.6 µM (inactive) | 25.2 µM (inactive) | 21.5 µM (inactive) | 20.8 µM (inactive)
COc1cc(OC2OC(CO)C(O)C(O)C2O)c2c(O)c3c(=O)cc(C)oc3cc2c1 (configuration not stated) | > 100 µM (inactive) | > 100 µM (inactive) | > 100 µM (inactive) | > 100 | > 100 µM (inactive) | 9.55 µM (inactive) | > 100 µM (inactive) |  | > 100 µM (inactive) | > 100 µM (inactive) | 94 µM (inactive) | > 100 µM (inactive) | > 100 µM (inactive) | > 100 µM (inactive) | > 100 µM (inactive) | > 100 µM (inactive) | > 100 µM (inactive) | 64.3 µM (inactive) | > 100 µM (inactive) | 67.1 µM (inactive)
C[C@]12CC[C@H](O)CC1=CC[C@@H]1[C@@H]2CC[C@]2(C)C(=O)CC[C@@H]12 [PRASTERONE] | > 100 µM (inactive) | > 100 µM (inactive) | 75.2 µM (inactive) | > 100 | > 100 µM (inactive) | > 100 µM (inactive) | > 100 µM (inactive) | > 100 µM (inactive) | > 100 µM (inactive) | > 100 µM (inactive) | > 100 µM (inactive) | > 100 µM (inactive) | > 100 µM (inactive) | > 100 µM (inactive) | > 100 µM (inactive) | > 100 µM (inactive) | > 100 µM (inactive) | > 100 µM (inactive) |  | > 100 µM (inactive)
COC(=O)[C@H](Cc1ccccc1)NP(=O)(O)OCC1C=CC(n2cc(C)c(=O)[nH]c2=O)O1 (some centres not stated) | > 100 µM (inactive) | > 100 µM (inactive) | > 100 µM (inactive) | > 100 | > 100 µM (inactive) | > 100 µM (inactive) | > 100 µM (inactive) | > 100 µM (inactive) | > 100 µM (inactive) | > 100 µM (inactive) |  | > 100 µM (inactive) | > 100 µM (inactive) | > 100 µM (inactive) | > 100 µM (inactive) | > 100 µM (inactive) | > 100 µM (inactive) | > 100 µM (inactive) |  | > 100 µM (inactive)
O=c1cc(N2CCCC2)[nH]c(=O)n1-c1ccccc1 | > 100 µM (inactive) | > 100 µM (inactive) | > 100 µM (inactive) | > 100 | > 100 µM (inactive) | > 100 µM (inactive) | > 100 µM (inactive) | > 100 µM (inactive) |  | > 100 µM (inactive) | > 100 µM (inactive) | > 100 µM (inactive) | > 100 µM (inactive) | > 100 µM (inactive) | > 100 µM (inactive) | > 100 µM (inactive) |  | > 10 µM (inactive) |  | > 100 µM (inactive)
Nc1nc(Cl)cc(NCC2(CCO)CCC2)n1 | > 100 µM (inactive) | > 100 µM (inactive) | 59.4 µM (inactive) | > 100 |  | > 100 µM (inactive) | > 100 µM (inactive) | > 100 µM (inactive) | > 100 µM (inactive) | > 100 µM (inactive) | > 100 µM (inactive) | > 100 µM (inactive) | > 100 µM (inactive) | > 100 µM (inactive) | > 100 µM (inactive) | > 100 µM (inactive) | > 100 µM (inactive) |  |  | > 100 µM (inactive)
O=C1C(N2CCNCC2)=C(Cl)C(=O)c2ncccc21 | > 10 µM (inactive) | 6.79 µM (inactive) | > 10 µM (inactive) | > 10 | > 10 µM (inactive) | > 10 µM (inactive) | > 10 µM (inactive) |  | > 10 µM (inactive) | > 10 µM (inactive) | > 10 µM (inactive) | > 10 µM (inactive) | 3.72 µM (inactive) | > 10 µM (inactive) | > 10 µM (inactive) | > 10 µM (inactive) |  | > 10 µM (inactive) |  | > 10 µM (inactive)
O=S(=O)(O)c1ccc2c(/N=N/c3cccc4ccccc34)c(O)c(S(=O)(=O)O)cc2c1 | > 100 µM (inactive) | > 100 µM (inactive) | > 100 µM (inactive) | > 100 | > 100 µM (inactive) | > 100 µM (inactive) | > 100 µM (inactive) | > 100 µM (inactive) | > 100 µM (inactive) | > 100 µM (inactive) |  | > 100 µM (inactive) | > 100 µM (inactive) | > 100 µM (inactive) | > 100 µM (inactive) | > 100 µM (inactive) | > 100 µM (inactive) | > 100 µM (inactive) |  | > 100 µM (inactive)
Cc1ccnn1CCc1ccc(Cl)cc1Cl | 27.6 µM (inactive) | 37.4 µM (inactive) | 2.31 µM (inactive) | 36.5 | 24.4 µM (inactive) |  | 24.8 µM (inactive) | 6.82 µM (inactive) | 20.5 µM (inactive) | 32.4 µM (inactive) | 18.2 µM (inactive) | 28.6 µM (inactive) | 54.8 µM (inactive) | 20.8 µM (inactive) | 29.1 µM (inactive) | 34.4 µM (inactive) | 4.63 µM (inactive) | 27 µM (inactive) |  | 30.1 µM (inactive)
CCOC(=O)c1sc2nc(SC)nc3c2c1NC(=O)CN3c1cccc(F)c1 | 14 µM (inactive) | 26.7 µM (inactive) | 46 µM (inactive) |  | 20.5 µM (inactive) | 6.93 µM (inactive) | 27 µM (inactive) |  | 19.7 µM (inactive) | 45 µM (inactive) | 0.735 µM (active) | 20.3 µM (inactive) | 0.834 µM (active) | 28.4 µM (inactive) | 14.4 µM (inactive) | 63.5 µM (inactive) | 15.5 µM (inactive) | 12.4 µM (inactive) | 18.2 µM (inactive) | 30.3 µM (inactive)
N#Cc1c(-c2ccc([N+](=O)[O-])cc2)c(C#N)c(=O)n(NS(=O)(=O)c2ccccc2)c1O | > 100 µM (inactive) |  | > 100 µM (inactive) | > 100 | > 100 µM (inactive) | > 100 µM (inactive) |  | > 100 µM (inactive) | > 100 µM (inactive) | > 100 µM (inactive) | > 100 µM (inactive) | 18.5 µM (inactive) | > 100 µM (inactive) | > 100 µM (inactive) | > 100 µM (inactive) | > 100 µM (inactive) |  |  | > 100 µM (inactive) | > 100 µM (inactive)
CC(=O)OCc1ccc(-c2nc(C#N)c(N)o2)o1 | > 10 µM (inactive) | > 10 µM (inactive) | > 10 µM (inactive) | > 10 | > 10 µM (inactive) | > 10 µM (inactive) | > 10 µM (inactive) | > 10 µM (inactive) |  |  | > 10 µM (inactive) | > 10 µM (inactive) | > 10 µM (inactive) | > 10 µM (inactive) |  | > 10 µM (inactive) | > 10 µM (inactive) | > 10 µM (inactive) |  | > 10 µM (inactive)
OCCN1c2ccccc2Sc2ccccc21 | > 10 µM (inactive) | > 10 µM (inactive) |  | > 10 | > 10 µM (inactive) |  | > 10 µM (inactive) | > 10 µM (inactive) | > 10 µM (inactive) | > 10 µM (inactive) | > 10 µM (inactive) | > 10 µM (inactive) | > 10 µM (inactive) | > 10 µM (inactive) | > 10 µM (inactive) | > 10 µM (inactive) |  | > 10 µM (inactive) |  | > 10 µM (inactive)
CCc1ccc(COC(=O)C2=C(C)NC(C)=C(C(=O)OCc3ccc(CC)cn3)C2C2=COCCO2)nc1 | 25.2 µM (inactive) | 24.9 µM (inactive) | 12.7 µM (inactive) | 22.7 | 16.9 µM (inactive) | 16.2 µM (inactive) | 20 µM (inactive) | 22 µM (inactive) | 19.7 µM (inactive) | 28.1 µM (inactive) | 14.4 µM (inactive) | 18.8 µM (inactive) | 27.8 µM (inactive) | 33.7 µM (inactive) | 17.5 µM (inactive) | 20.5 µM (inactive) | 20.2 µM (inactive) | 27.4 µM (inactive) |  | 
